Where a name gives a salt, the structure may show the parent alone.
Experiments:
[1] = target: recombinant human α2C receptor CHO cell line (Homo sapiens (Human), UniProt P18825); experiment: Antagonism against adrenoreceptor α2C (luminescence, noradrenaline-stimulated recombinant CHO cells); assay type: cell-based; details: 20 nM noradrenaline, tested up to 10 μM
Protocol: B-1a) Antagonism Against Adrenoreceptors
Antagonism against the adrenoreceptor α1A was tested using a recombinant human α1A receptor CHO cell line which additionally also recombinantly expresses mtAeq (mitochondrial aequorin). Antagonism against the adrenoreceptor α2A was tested using a recombinant human α2A-Gα16 receptor fusion protein CHO cell line (PerkinElmer Life Sciences) which additionally also recombinantly expresses mtAeq. Antagonism against the adrenoreceptor α2B was tested using a recombinant human α2B receptor CHO cell line (PerkinElmer Life Sciences) which additionally also recombinantly expresses mtAeq. Antagonism against the adrenoreceptor α2C was tested using a recombinant human α2C receptor CHO cell line which additionally also recombinantly expresses a chimeric G protein (Gαqi3) and mtOb (mitochondrial obelin).
The cells were cultivated at 37° C. and 5% CO2 in Dulbecco's modified Eagle's Medium/NUT mix F12 with L-glutamine which additionally contained 10% (v/v) inactivated foetal calf serum, 1 mM sodium pyruvate, 0.9 mM sodium bicarbonate, 50 U/ml penicillin, 50 μg/ml streptomycin, 2.5 μg/ml amphotericin B and 1 mg/ml Geneticin. The cells were passaged with enzyme-free Hank's-based cell dissociation buffer. All cell culture reagents used were from Invitrogen (Carlsbad, USA).
Luminescence measurements were carried out on white 384-well microtitre plates. 2000 cells/well were plated in a volume of 25 μl and cultivated for one day at 30° C. and 5% CO2 in cell culture medium with coelenterazine (α2A and α2B: 5 μg/ml; α1a/c and α2C: 2.5 μg/ml). Serial dilutions of the test substances (10 μl) were added to the cells. After 5 minutes, noradrenaline was added to the cells (35 μl; final concentrations: 20 nM (α1a/c and α2C) or 200 nM (α2A and α2B)), and the emitted light was measured for 50 seconds using a CCD (charge-coupled device) camera (Hamamatsu Corporation, Shizuoka, Japan) in a light-tight box. The test substances were tested up to a maximum concentration of 10 μM. The IC50 values were calculated from the appropriate dose-response curves.

[2] = system: diabetic (ZDFfa/fa) and healthy rats (Wistar); experiment: Assay of perfusion-enhancing substances (microcirculation), laser doppler probe at the paw; assay type: in vivo, rat; details: single oral dose; for factor by which microcirculation is improved at MED compared to placebo: at the MED, 30 min after administration; for MED skin temperature: minimum effective dose for significant increase of skin temperature (ttest); for MED microcirculation: minimum effective dose with significantly improved microcirculation vs placebo, measured 30 min after administration
Excerpt: B-2e) Assay of Perfusion-Enhancing Substances (Microcirculation)
In diabetic (ZDFfa/fa) and healthy rats (Wistar), a laser doppler probe was fastened under anaesthesia conditions (isoflurane anaesthesia) at the sole of the paw for measuring cutaneous microcirculation. The test animals were once treated orally with the test substances. During the experiment, microperfusion and temperature of the lower extremities were documented continuously. Here, a temperature-sensitive laser doppler probe (Periflux, 02C) was fastened with adhesive to the paws of the animals, allowing the measurement of microperfusion and skin temperature. The microcirculation measurement values were measured on both paws 30 min after oral administration of the test substance. […] Also stated is the MED for the significant increase of skin temperature (ttest).
Microcirculation data for adrenoreceptor α2C receptor antagonist of the compound of Example 11 and for comparative substance ORM12741, an AR α2C receptor antagonist from Orion, are shown in Table 2: […]

Sequence of recombinant human α2C receptor CHO cell line (P18825 whole entry): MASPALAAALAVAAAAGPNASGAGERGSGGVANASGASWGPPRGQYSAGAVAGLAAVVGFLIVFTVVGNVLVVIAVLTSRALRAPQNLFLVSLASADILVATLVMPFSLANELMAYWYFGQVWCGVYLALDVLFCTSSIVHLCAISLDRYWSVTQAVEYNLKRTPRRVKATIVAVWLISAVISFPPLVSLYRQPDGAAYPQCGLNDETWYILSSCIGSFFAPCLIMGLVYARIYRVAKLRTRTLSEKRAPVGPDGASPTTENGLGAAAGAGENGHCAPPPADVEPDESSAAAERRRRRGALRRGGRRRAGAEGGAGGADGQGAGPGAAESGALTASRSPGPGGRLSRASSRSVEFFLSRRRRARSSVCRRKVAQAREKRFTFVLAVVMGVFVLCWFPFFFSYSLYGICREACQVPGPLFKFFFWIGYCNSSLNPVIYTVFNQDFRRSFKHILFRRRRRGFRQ

| IC50 [1] | Compound | other results |
| --- | --- | --- |
| 14 nM | O=C(c1cnc(N2CCOCC2)nc1)N1CCC(N2CCCC(OCC3CC3)C2)CC1 (stereo not drawn) [Example 17, [3-(Cyclopropylmethoxy)-1,4′-bipiperidin-1′-yl][2-(morpholin-4-yl)pyrimidin-5-yl]methanone] | – |
| 71 nM | C[C@@H]1CCCN(C2CCN(C(=O)c3cnc(N4CCS(=O)(=O)CC4)cn3)CC2)C1 [Example 21, [5-(1,1-Dioxidothiomorpholin-4-yl)pyrazin-2-yl][(3R)-3-methyl-1,4′-bipiperidin-1′-yl]methanone] | – |
| 54 nM | C[C@@H]1CCCN(C2CCN(C(=O)c3cnc(N4CCOCC4)nc3)CC2)C1 [Example 16, [(3R)-3-Methyl-1,4′-bipiperidin-1′-yl][2-(morpholin-4-yl)pyrimidin-5-yl]methanone] | – |
| 24 nM | C[C@@H]1CCCN(C2CCN(C(=O)c3cnc(N4CC5(COC5)C4)nc3)CC2)C1 [Example 18, [(3R)-3-Methyl-1,4′-bipiperidin-1′-yl][2-(2-oxa-6-azaspiro[3.3]hept-6-yl)pyrimidin-5-yl]methanone] | – |
| 19 nM | C[C@@H]1CCCN(C2CCN(C(=O)c3cnc(N4CCC(F)(F)CC4)nc3)CC2)C1 [Example 19, [2-(4,4-Difluoropiperidin-1-yl)pyrimidin-5-yl][(3R)-3-methyl-1,4′-bipiperidin-1′-yl]methanone] | – |
| 41 nM | COC[C@H]1CCCN1c1ncc(C(=O)N2CCC(N3CCC[C@@H](C)C3)CC2)cn1 [Example 20, {2-[(2R)-2-(Methoxymethyl)pyrrolidin-1-yl]pyrimidin-5-yl}[(3R)-3-methyl-1,4′-bipiperidin-1′-yl]methanone] | – |
| 16 nM | CCC(COC)Nc1ccc(C(=O)N2CCC(N3CCC[C@@H](C)C3)CC2)cn1 (stereo partly drawn) [Example 14, {6-[(1-Methoxybutan-2-yl)amino]pyridin-3-yl}[(3R)-3-methyl-1,4′-bipiperidin-1′-yl]methanone] | – |
| 27 nM | CC1CCCN(c2ccc(C(=O)N3CCC(N4CCC[C@@H](C)C4)CC3)cn2)C1 (stereo partly drawn) [Example 15, [(3R)-3-Methyl-1,4′-bipiperidin-1′-yl][6-(3-methylpiperidin-1-yl)pyridin-3-yl]methanone] | – |

Further lines, the compound ahead of its results:

| Compound | IC50 [1] | other results |
| --- | --- | --- |
| COC[C@H]1CCCN1c1ccc(C(=O)N2CCC(N3CCC[C@@H](C)C3)CC2)cn1 [Example 3, {6-[(2R)-2-(Methoxymethyl)pyrrolidin-1-yl]pyridin-3-yl}[(3R)-3-methyl-1,4′-bipiperidin-1′-yl]methanone formic acid salt] | 11 nM | – |
| COCCNc1ccc(C(=O)N2CCC(N3CCC[C@@H](C)C3)CC2)cn1 [Example 4, {6-[(2-Methoxyethyl)amino]pyridin-3-yl}[(3R)-3-methyl-1,4′-bipiperidin-1′-yl]methanone] | 36 nM | – |
| COCCN(C)c1ccc(C(=O)N2CCC(N3CCC[C@@H](C)C3)CC2)cn1 [Example 6, {6-[(2-Methoxyethyl)(methyl)amino]pyridin-3-yl}[(3R)-3-methyl-1,4′-bipiperidin-1′-yl]methanone hydrochloride] | 33 nM | – |
| CCC(COC(N)=O)Nc1ccc(C(=O)N2CCC(N3CCC[C@@H](C)C3)CC2)cn1 (stereo partly drawn) [Example 12, 2-[(5-{[(3R)-3-Methyl-1,4′-bipiperidin-1′-yl]carbonyl}pyridin-2-yl)amino]butyl carbamate] | 21 nM | – |
| O=C(c1ccc(N2CCOCC2)nc1)N1CCC(N2CCCC(OCC3CC3)C2)CC1 (stereo not drawn) [Example 7, [3-(Cyclopropylmethoxy)-1,4′-bipiperidin-1′-yl][6-(morpholin-4-yl)pyridin-3-yl]methanone] | 13 nM | – |
| C[C@@H]1CCCN(C2CCN(C(=O)c3ccc(N(C)Cc4c(F)cccc4F)nc3)CC2)C1 [Example 8, {6-[(2,6-Difluorobenzyl)(methyl)amino]pyridin-3-yl}[(3R)-3-methyl-1,4′-bipiperidin-1′-yl]methanone] | 4.5 nM | – |
| CC[C@@H](CO)Nc1ccc(C(=O)N2CCC(N3CCC[C@@H](C)C3)CC2)cn1 [Example 10, (6-{[(2 S)-1-Hydroxybutan-2-yl]amino}pyridin-3-yl)[(3R)-3-methyl-1,4′-bipiperidin-1′-yl]methanone] | 18 nM | – |
| C[C@@H]1CCCN(C2CCN(C(=O)c3ccc(N4CCOCC4)nc3)CC2)C1 [Example 2, [(3R)-3-Methyl-1,4′-bipiperidin-1′-yl][6-(morpholin-4-yl)pyridin-3-yl]methanone] | 50 nM | – |
| COC1CCN(c2ccc(C(=O)N3CCC(N4CCC[C@@H](C)C4)CC3)cn2)C1 (stereo partly drawn) [Example 13, [6-(3-Methoxypyrrolidin-1-yl)pyridin-3-yl][(3R)-3-methyl-1,4′-bipiperidin-1′-yl]methanone] | 12 nM | – |
| C[C@@H]1CCCN(C2CCN(C(=O)c3ccc(N4CCS(=O)(=O)CC4)nc3)CC2)C1 [Example 9, [6-(1,1-Dioxidothiomorpholin-4-yl)pyridin-3-yl][(3R)-3-methyl-1,4′-bipiperidin-1′-yl]methanone] | 27 nM | – |
| COC[C@@]1(C)CCCN2CCc3c(oc4ccccc34)[C@@H]21 [ORM-12741, reference compound] | – | factor by which microcirculation is improved at MED compared to placebo [2]: 1.9 ×; MED skin temperature [2]: 0.01 mg/kg; MED microcirculation [2]: 0.1 mg/kg |
| C[C@@H]1CCCN(C2CCN(C(=O)c3ccc(N4CCC(F)(F)CC4)nc3)CC2)C1 [Example 5, [6-(4,4-Difluoropiperidin-1-yl)pyridin-3-yl][(3R)-3-methyl-1,4′-bipiperidin-1′-yl]methanone] | 18 nM | – |
| C[C@@H]1CCCN(C2CCN(C(=O)c3ccc(N4CCOCC4)nc3)CC2)C1 [Example 1, [(3R)-3-Methyl-1,4′-bipiperidin-1′-yl][6-(morpholin-4-yl)pyridin-3-yl]methanone formic acid salt] | – | IC50 ([1]; formic acid salt): 28 nM |
| CCC(CO)Nc1ccc(C(=O)N2CCC(N3CCC[C@@H](C)C3)CC2)cn1 (stereo partly drawn) [Example 11, {6[(1-Hydroxybutan-2-yl)amino]pyridin-3-yl}[(3R)-3-methyl-1,4′-bipiperidin-1′-yl]methanone] | 62 nM | factor by which microcirculation is improved at MED compared to placebo [2]: 2.4 ×; MED skin temperature [2]: 1 mg/kg; MED microcirculation [2]: 1 mg/kg |

— patent US9624199B2, “Substituted bipiperidinyl derivatives” (Bayer Pharma Aktiengesellschaft, priority 2013, dated 2017)
